Some test systems named below: CCRF-CEM leukemia; HL-60(TB) leukemia; MDA-MB-435; MOLT-4 leukemia; RXF 393 renal; UO-31 renal; NCI-H460 lung.
Holding throughout (assay): growth of human tumour cells (NCI), 48 h

Values joined by “and” are separate entries in the source; they are usually repeats but may differ in a detail not shown here. Equal values may be shown once.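 How tested: cells in 96-well plates exposed to compound for 48 hours at five concentrations. GI50 marks 50% less growth. TGI: concentration producing complete growth inhibition.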 Active and inactive are the calls of the source. Cut-off read from the data, not from the text of the source: active = GI50 below about 0.43 µM; inactive = the rest. Where only a bound is given, the exact number is not on record here.

Consider `O=P(O)(O)CN1CCNCCN(CP(=O)(O)O)CCN(CP(=O)(O)O)CCNCC1`, for which the outcome with CCRF-CEM leukemia, in the experiment with MDA-MB-435, in the experiment on MOLT-4 leukemia, in the experiment with RXF 393 renal and in the experiment with UO-31 renal was inactive. The GI50 in the experiment with HL-60(TB) leukemia is 48900 µM. The same compound showed a TGI in the experiment with HL-60(TB) leukemia of 55.8 µM.

As to `COc1cccc([C@@H]2CC(=O)c3cc4c(cc3N2)OCO4)c1`, the TGI in the experiment with CCRF-CEM leukemia, with MDA-MB-435, in the experiment on RXF 393 renal and in the experiment with UO-31 renal was more than 100 µM in each case.

Turning to `Cn1c(COC(=O)NC2CCCCC2)c(COC(=O)NC2CCCCC2)c2ccc3cc(C=O)ccc3c21`, the TGI with CCRF-CEM leukemia, in the experiment with HL-60(TB) leukemia, in the experiment on MDA-MB-435, in the experiment with MOLT-4 leukemia, with RXF 393 renal and with UO-31 renal was more than 100 µM in each case.

Consider `C[N+](C)(C)CC(=O)N/N=C(/Cc1nc2ccc([N+](=O)[O-])cc2[nH]c1=O)C(=O)Nc1cc(C(F)(F)F)ccc1Cl`, for which the TGI with CCRF-CEM leukemia, with HL-60(TB) leukemia, in the experiment with MOLT-4 leukemia, in the experiment on NCI-H460 lung, in the experiment on RXF 393 renal and in the experiment with UO-31 renal was more than 100 µM throughout.

With `O=S1(=O)OCCCOS(=O)(=O)C1(Br)Br`, the TGI with CCRF-CEM leukemia, in the experiment with HL-60(TB) leukemia, in the experiment on MDA-MB-435, with MOLT-4 leukemia, with RXF 393 renal and with UO-31 renal was more than 100 µM in each case.

As for `O=C(CC(c1ccccc1)C(C(=O)c1ccncc1)C(CC(=O)c1ccncc1)c1ccccc1)c1ccncc1` (stereo not drawn), the TGI in the experiment with CCRF-CEM leukemia, in the experiment with HL-60(TB) leukemia, with MDA-MB-435, in the experiment on MOLT-4 leukemia, with NCI-H460 lung and with UO-31 renal was more than 100 µM in each case.

With `COc1ccc(C2=NNC(c3cc4cc(Br)ccc4nc3Cl)C2)cc1` (stereo not drawn), the TGI is 5.28 µM in the experiment on CCRF-CEM leukemia; 12.1 µM in the experiment with HL-60(TB) leukemia; more than 25 µM with MDA-MB-435; more than 25 µM with MOLT-4 leukemia; more than 25 µM with NCI-H460 lung; more than 25 µM with UO-31 renal.

Consider `O=C(Nc1ccc(Sc2ccc(N=Nc3c(O)c(S(=O)(=O)O)cc4cc(S(=O)(=O)O)ccc34)cc2)cc1)c1ccc(N=Nc2c(O)c(S(=O)(=O)O)cc3cc(S(=O)(=O)O)ccc23)cc1`, for which the TGI in the experiment on CCRF-CEM leukemia is 64.3 µM; with HL-60(TB) leukemia, 37.4 µM; with MOLT-4 leukemia, 36.8 µM; in the experiment on NCI-H460 lung, 27.7 µM; in the experiment with RXF 393 renal, 71.7 µM; in the experiment with UO-31 renal it was more than 100 µM.

With `CO[C@]12CC(=O)C3(C(C[C@H]4CC5CC[C@H]6C[C@@H](OC(C)=O)CC[C@]6(OC(C)=O)C5C[C@@]43C)C1)C1C[C@H]3[C@@H]4CC[C@H]5C[C@@H](OC(C)=O)CC[C@]5(OC(C)=O)[C@H]4CC[C@]3(C)C12` (stereo partly drawn), the TGI with CCRF-CEM leukemia, in the experiment with MDA-MB-435, in the experiment on MOLT-4 leukemia, in the experiment on NCI-H460 lung and in the experiment on UO-31 renal was more than 100 µM each time.

As to `Cc1ccc2c(=O)cc(Cc3csc4ccccc34)[nH]c2n1`, the TGI was more than 100 µM in the experiment on CCRF-CEM leukemia; more than 100 µM in the experiment with MDA-MB-435; more than 100 µM with MOLT-4 leukemia; more than 100 µM in the experiment on RXF 393 renal; 80.1 µM in the experiment with UO-31 renal.

On to `COc1cc2c(c(OC)c1OC)-c1ccc(SC)c(=O)cc1[C@@H](NC(=O)c1ccc([N+](=O)[O-])cc1)CC2`, for which the TGI in the experiment on CCRF-CEM leukemia was 25 µM; with HL-60(TB) leukemia, 0.302 µM; in the experiment on NCI-H460 lung, 0.0108 µM; in the experiment with UO-31 renal it was 25 µM and 59.4 µM.

Consider `C=CCOCn1ccc(N)nc1=O`, for which the TGI in the experiment on CCRF-CEM leukemia, in the experiment with HL-60(TB) leukemia, with MDA-MB-435, with MOLT-4 leukemia and in the experiment with UO-31 renal was more than 100 µM in each case.

As to `O=C(c1ccccc1O)c1cc(-c2ncc3c(=O)c4ccccc4oc3n2)c(-c2ccccc2O)[nH]c1=O`, the TGI with CCRF-CEM leukemia is 69.3 µM; in the experiment with HL-60(TB) leukemia, 53.2 µM; with MOLT-4 leukemia, 61.9 µM; with NCI-H460 lung, 60.9 µM; in the experiment on RXF 393 renal it was 93.4 µM; in the experiment on UO-31 renal, more than 79.7 µM.

With `O=C(/C=C/c1ccccc1)Oc1cccc(Br)c1`, the TGI in the experiment on HL-60(TB) leukemia was 52.1 µM; in the experiment on MDA-MB-435, more than 100 µM; in the experiment with MOLT-4 leukemia, 29.8 µM; in the experiment with NCI-H460 lung, more than 100 µM; in the experiment on RXF 393 renal, more than 100 µM; in the experiment with UO-31 renal it was more than 100 µM.

On to `COc1cc([C@@H]2c3cc4c(cc3[C@@H](c3c(O)cc(O)c5c3O[C@H](c3ccc(O)c(O)c3)[C@H](OC(=O)c3cc(O)c(O)c(O)c3)C5)[C@H]3COC(=O)[C@H]23)OCO4)cc(OC)c1O`, for which the TGI was 59 µM in the experiment with CCRF-CEM leukemia; 56.3 µM with HL-60(TB) leukemia; 57.3 µM in the experiment on MDA-MB-435; more than 100 µM in the experiment with MOLT-4 leukemia; more than 100 µM in the experiment with NCI-H460 lung; more than 100 µM in the experiment on RXF 393 renal.

As for `COc1cc(S(=O)(=O)Nc2ccc(-c3csc(N4C(=O)C(C)SC4c4ccccc4)n3)cc2)ccc1Cl` (stereo not drawn), the TGI was more than 100 µM in the experiment with CCRF-CEM leukemia; 47.7 µM in the experiment with HL-60(TB) leukemia; more than 100 µM in the experiment on MDA-MB-435; more than 100 µM in the experiment on MOLT-4 leukemia; 47.4 µM in the experiment with RXF 393 renal; more than 100 µM with UO-31 renal.

Consider `O=Cc1c(Br)[nH]c2ccccc12`, for which the TGI in the experiment on CCRF-CEM leukemia was more than 100 µM; in the experiment on HL-60(TB) leukemia, more than 100 µM; with MOLT-4 leukemia, more than 72.6 µM; with NCI-H460 lung, more than 100 µM; in the experiment with RXF 393 renal, more than 100 µM; with UO-31 renal it was more than 100 µM.

Consider `Cc1cc2oc3c(ccc(=O)n3C)c(=O)c2c(C)c1Cl`, for which the TGI in the experiment on CCRF-CEM leukemia is more than 100 µM; in the experiment with HL-60(TB) leukemia, more than 100 µM; with MDA-MB-435 it was more than 100 µM; in the experiment on NCI-H460 lung, more than 100 µM; in the experiment with RXF 393 renal it was 95.6 µM; in the experiment on UO-31 renal it was more than 100 µM.

With `Cn1cnc(SC2=C3C(=O)C=C4S[C@H]5C[C@]42c2c(c(O)c4c6c2=[N+]3CCC=6C=N4)N5)c1CC(N)C(=O)O` (stereo partly drawn), the TGI is 45.9 µM with CCRF-CEM leukemia; 38.8 µM with HL-60(TB) leukemia; 33.7 µM in the experiment with MOLT-4 leukemia; more than 100 µM in the experiment on NCI-H460 lung; 43.8 µM in the experiment on RXF 393 renal; 37.6 µM in the experiment with UO-31 renal.

The values above are taken from PubChem BioAssay (NCI).
